Reference: patent US9926324B2, “Heteroaromatic compounds as PI3 kinase modulators and methods of use” (Calitor Sciences, LLC, priority 2012, dated 2018)

What was measured:
PI3K (p110δ/p85α) (h) = molecular target: T1, PI3K (p110δ/p85α) (h) (Homo sapiens, UniProt O00329); assay: PI3K p110δ/p85α (h) non-radioactive HTRF assay; type: biochemical
T1 construct: purchased Millipore UK Ltd (assay service)
Method: (§1) PI3K (p110δ/p85α) (h) is incubated in assay buffer containing 10 μM phosphatidylinositol-4,5-bisphosphate and MgATP (concentration as required). The reaction is initiated by the addition of the MgATP mix. After incubation for 30 minutes at room temperature, the reaction is stopped by the addition of stop solution containing EDTA and biotinylated phosphatidylinositol-3,4,5-trisphosphate. Finally, detection buffer is added, which contains europium-labelled anti-GST monoclonal antibody, GST-tagged GRP1 PH domain and streptavidin-allophycocyanin. The plate is then read in timeresolved fluorescence mode and the homogenous time-resolved fluorescence (HTRF) signal is determined according to the formula HTRF=10000×(Em665 nm/Em620 nm).
(§2) The kinase assays described herein were performed at Millipore UK Ltd, Dundee Technology Park, Dundee DD2 1SW, UK.

[1] = Pharmacokinetic profiles in dogs after intravenous and oral administration; type: in vivo; conditions: Dog; for F: iv dose 1 mg/kg, oral dose generally 10 mg/kg; for Clearance (CL) / AUC(0-t) / half-life / Vd: iv dosing 1 mg/kg; for AUC(0-t) / half-life / Vd: plasma; for Vd: read-out: Vss
Method: The compounds disclosed herein are assessed in pharmacokinetic studies in mice, rats, dogs or monkeys. The compounds are administered as a water solution, 2% HPMC+1% TWEEN® 80 in water solution, 5% DMSO+5% solutol in saline, 4% MC suspension or capsule. For the intravenous administration, the animals are generally given at 1 or 2 mg/kg dose. For the oral (p.o.) dosing, mice and rats are generally given 5 or 10 mg/kg dose, and dogs and monkeys are generally given 10 mg/kg dose. The blood samples (0.3 mL) are drawn at 0.25, 0.5, 1.0, 2.0, 3.0, 4.0, 6.0, 8.0, 12 and 24 h time points or 0.083, 0.25, 0.5, 1.0, 2.0, 4.0, 6.0, 8.0 and 24 h time points and centrifuged at 3,000 or 4000 rpm for 2 to 10 min. The plasma solutions are collected, stored at −20° C. or −70° C. until analyzed by LC/MS/MS as described above.

U87MG glioblastoma cells = assay: Tumor xenograft model (U87MG), tumor growth inhibition; type: in vivo, athymic nude mice
Method: The efficacy of compounds disclosed herein was evaluated in a standard murine model of tumorigenesis. Human tumor cells (U87MG glioblastoma cells from ATCC) were expended in culture, harvested, and injected subcutaneously onto the rear flank of 6-7 week old female athymic nude mice (BALB/cA nu/nu, Hunan SLAC Laboratory Animal, Co.) (n=6-10 for vehicle group and for each dosing group). When tumors reached a volume of 100-250 mm^3, animals were randomly divided into vehicle control (for example, 5% DMSO+70% Captisol® (30%), 7% HCl (pH1), 18% Captisol® (30%); or 7% DMSO, 7% HCl (pH1), 70% Captisol® (30%), 16% Captisol® (30%), or the like) and compound groups. Subsequent administration of compound by oral gavage begins anywhere from day 0 to day 15 post tumor cell challenge and generally continues with once a day for the duration of the experiment.
Progression of tumor growth is assessed by tumor volumes and recorded as a function of time. The long (L) and short (W) axes of the subcutaneous tumors were measured with calipers twice weekly, and the tumor volume (TV) calculated as (L×W^2)/2). TGI was calculated from the difference between the median tumor volumes of vehicle-treated and drug-treated mice, expressed as a percentage of the median tumor volume of the vehicle-treated control group, by the following relation:
Initial statistical analysis is done by repeated measures analysis of variance (RMANOVA), followed by Scheffe psot hoc testing for multiple comparisons. Vehicle alone (5% DMSO+70% Captisol® (30%), 7% HCl (pH1), 18% Captisol® (30%); or 7% DMSO, 7% HCl (pH1), 70% Captisol® (30%), 16% Captisol® (30%), or the like) is the negative control.

PI3K (p120γ) (h) = molecular target: T2, PI3K (p120γ) (h) (Homo sapiens, UniProt P48736); assay: PI3K p120γ (h) non-radioactive HTRF assay; type: biochemical
T2 construct: purchased Millipore UK Ltd (assay service)
Method: as §1, with “(p120γ)” for “(p110δ/p85α)”
as §2

T1 sequence (O00329 whole entry): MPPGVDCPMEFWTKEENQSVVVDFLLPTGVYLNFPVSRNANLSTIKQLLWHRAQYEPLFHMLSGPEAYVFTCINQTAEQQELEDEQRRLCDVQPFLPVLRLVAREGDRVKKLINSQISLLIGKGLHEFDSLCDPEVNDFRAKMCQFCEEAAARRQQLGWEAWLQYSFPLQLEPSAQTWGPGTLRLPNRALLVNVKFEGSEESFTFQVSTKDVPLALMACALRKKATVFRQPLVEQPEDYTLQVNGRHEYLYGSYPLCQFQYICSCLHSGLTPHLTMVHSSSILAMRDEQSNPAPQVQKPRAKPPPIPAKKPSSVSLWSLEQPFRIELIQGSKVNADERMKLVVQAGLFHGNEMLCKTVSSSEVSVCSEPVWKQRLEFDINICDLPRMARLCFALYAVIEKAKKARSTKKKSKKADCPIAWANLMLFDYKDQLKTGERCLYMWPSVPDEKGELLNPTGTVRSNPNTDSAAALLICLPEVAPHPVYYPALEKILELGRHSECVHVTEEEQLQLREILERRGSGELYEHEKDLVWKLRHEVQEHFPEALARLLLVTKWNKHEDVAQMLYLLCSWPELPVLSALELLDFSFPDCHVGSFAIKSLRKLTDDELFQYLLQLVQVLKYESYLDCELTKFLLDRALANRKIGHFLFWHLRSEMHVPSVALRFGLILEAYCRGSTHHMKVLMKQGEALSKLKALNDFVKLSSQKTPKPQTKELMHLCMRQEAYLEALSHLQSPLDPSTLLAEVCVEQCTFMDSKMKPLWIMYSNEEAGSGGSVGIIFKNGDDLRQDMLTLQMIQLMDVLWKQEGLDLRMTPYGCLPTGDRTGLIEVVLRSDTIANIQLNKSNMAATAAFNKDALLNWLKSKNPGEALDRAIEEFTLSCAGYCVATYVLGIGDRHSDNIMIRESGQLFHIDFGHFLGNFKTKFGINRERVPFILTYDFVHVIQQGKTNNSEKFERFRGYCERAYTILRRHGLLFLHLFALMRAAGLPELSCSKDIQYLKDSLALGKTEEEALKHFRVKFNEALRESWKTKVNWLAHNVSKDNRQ
T1 sequence (P27986 whole entry partner): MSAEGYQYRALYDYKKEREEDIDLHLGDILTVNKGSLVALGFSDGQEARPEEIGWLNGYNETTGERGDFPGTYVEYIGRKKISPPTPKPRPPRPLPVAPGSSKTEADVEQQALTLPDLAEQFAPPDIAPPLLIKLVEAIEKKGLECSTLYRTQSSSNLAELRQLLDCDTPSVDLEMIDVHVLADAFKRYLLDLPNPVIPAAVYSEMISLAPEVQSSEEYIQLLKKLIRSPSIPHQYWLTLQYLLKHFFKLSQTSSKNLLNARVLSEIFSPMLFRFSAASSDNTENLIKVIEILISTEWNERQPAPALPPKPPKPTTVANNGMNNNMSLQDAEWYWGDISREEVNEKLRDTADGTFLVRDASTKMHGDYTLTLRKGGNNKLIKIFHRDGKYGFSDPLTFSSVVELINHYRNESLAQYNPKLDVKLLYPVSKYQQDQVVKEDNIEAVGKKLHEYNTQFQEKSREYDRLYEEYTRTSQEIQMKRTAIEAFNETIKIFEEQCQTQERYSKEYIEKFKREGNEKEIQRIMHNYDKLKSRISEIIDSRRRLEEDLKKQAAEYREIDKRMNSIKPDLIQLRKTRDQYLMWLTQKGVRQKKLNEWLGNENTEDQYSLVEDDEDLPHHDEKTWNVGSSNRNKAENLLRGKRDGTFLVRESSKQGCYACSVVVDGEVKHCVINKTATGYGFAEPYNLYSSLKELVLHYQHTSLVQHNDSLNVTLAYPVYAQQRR
T2 sequence (P48736 whole entry): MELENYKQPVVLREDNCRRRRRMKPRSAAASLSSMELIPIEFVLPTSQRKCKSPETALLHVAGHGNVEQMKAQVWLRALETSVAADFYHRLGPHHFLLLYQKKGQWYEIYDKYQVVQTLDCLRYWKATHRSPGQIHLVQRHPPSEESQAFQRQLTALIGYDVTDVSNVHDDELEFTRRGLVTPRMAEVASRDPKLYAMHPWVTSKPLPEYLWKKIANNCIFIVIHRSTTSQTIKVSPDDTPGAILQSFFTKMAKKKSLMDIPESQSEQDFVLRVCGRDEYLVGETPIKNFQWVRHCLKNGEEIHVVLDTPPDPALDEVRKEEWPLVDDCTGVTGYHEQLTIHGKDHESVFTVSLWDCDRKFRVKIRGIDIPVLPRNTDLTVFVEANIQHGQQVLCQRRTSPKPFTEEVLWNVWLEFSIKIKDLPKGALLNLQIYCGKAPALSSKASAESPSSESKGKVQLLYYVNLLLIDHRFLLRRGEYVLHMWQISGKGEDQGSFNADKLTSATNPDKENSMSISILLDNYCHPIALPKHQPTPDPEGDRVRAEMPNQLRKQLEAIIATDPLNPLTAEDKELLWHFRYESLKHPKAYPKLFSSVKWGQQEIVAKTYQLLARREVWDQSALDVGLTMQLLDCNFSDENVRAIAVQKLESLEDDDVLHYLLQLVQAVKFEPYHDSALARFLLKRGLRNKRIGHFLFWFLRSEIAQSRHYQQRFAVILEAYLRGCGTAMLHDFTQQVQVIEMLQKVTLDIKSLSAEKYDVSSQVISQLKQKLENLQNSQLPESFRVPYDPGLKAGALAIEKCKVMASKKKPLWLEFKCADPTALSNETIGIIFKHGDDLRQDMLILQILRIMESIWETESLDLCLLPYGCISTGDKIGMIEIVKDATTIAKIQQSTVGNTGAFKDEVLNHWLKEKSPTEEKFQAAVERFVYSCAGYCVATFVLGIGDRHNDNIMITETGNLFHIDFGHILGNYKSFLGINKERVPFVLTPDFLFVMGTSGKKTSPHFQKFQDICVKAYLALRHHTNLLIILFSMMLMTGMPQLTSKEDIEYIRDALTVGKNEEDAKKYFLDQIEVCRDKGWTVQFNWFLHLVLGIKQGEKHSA

Row | IC50 (PI3K (p110δ/p85α) (h)) [nM] | F [1] [%] | Clearance (CL) [1] [L/h/kg] | AUC(0-t) [1] [µg·h/mL] | half-life [1] [min] | Vd [1] [L/kg] | IC50 (PI3K (p120γ) (h)) [nM] | SMILES | TGI % U87MG (U87MG glioblastoma cells; 1 mg/kg oral gavage, 12 days) [%] | TGI % U87MG (U87MG glioblastoma cells; 3 mg/kg oral gavage, 12 days) [%] | TGI % U87MG (U87MG glioblastoma cells; 10 mg/kg oral gavage, 12 days) [%] | TGI % U87MG (U87MG glioblastoma cells; 0.3 mg/kg oral gavage, 9 days) [%] | TGI % U87MG (U87MG glioblastoma cells; 1 mg/kg oral gavage, 9 days) [%] | TGI % U87MG (U87MG glioblastoma cells; 3 mg/kg oral gavage, 9 days) [%]
1 | 2 | 44.2 | 0.37 | 2.75 | 43.8 | 0.31 |  | COc1ncc(-c2ccc3ncc(C#CCO)n3n2)cc1NS(=O)(=O)c1ccc(F)cc1F [Ex. 9, 2,4-difluoro-N-(5-(3-(3-hydroxyprop-1-yn-1-yl)imidazo[1,2-b]pyridazin-6-yl)-2-methoxypyridin-3-yl)benzenesulfonamide] | 23 | 26 | 62 |  |  | 
2 | 1 | 108.5 | 0.46 | 2.17 | 44.4 | 0.37 | 37 | COc1ncc(-c2ccc3ncc(C#CCO)n3c2)cc1NS(=O)(=O)c1ccc(F)cc1F [Ex. 15, 2,4-difluoro-N-(5-(3-(3-hydroxyprop-1-yn-1-yl)imidazo[1,2-a]pyridin-6-yl)-2-methoxypyridin-3-yl)benzenesulfonamide] |  | 28 | 51 |  |  | 
3 | 3 |  |  |  |  |  | 5 | COc1ncc(-c2ccc3ncc(C#CC(C)O)n3c2)cc1NS(=O)(=O)c1ccc(F)cc1F (centres unmarked) [Ex. 16, 2,4-difluoro N (5 (3 (3 hydroxybut-1-yn-1-yl)imidazo[1,2-a]pyridin-6-yl)-2-methoxypyridin-3-yl)benzenesulfonamide] |  | 14 | 43 |  |  | 
4 | 3 | 108.5 | 0.54 | 1.84 | 34.2 | 0.37 | 4 | COc1ncc(-c2ccc3ncc(C#N)n3n2)cc1NS(=O)(=O)c1ccc(F)cc1F [Ex. 24, N-(5-(3-cyanoimidazo[1,2-b]pyridazin-6-yl)-2-methoxypyridin-3-yl)-2,4-difluorobenzenesulfonamide] |  |  |  | 53 | 84 | 108
